The text below walks through data of patent US8609690B2, “Aryl- and heteroarylcarbonyl derivatives of substituted nortropanes, medicaments containing such compounds and their use” (Boehringer Ingelheim International GmbH, priority 2008, dated 2013).

The target of the assay is T1, 11β-HSD 1 (Homo sapiens, UniProt P28845).
T1 construct: detecting cortisol generated from cortisterone by human liver microsomes; from tissue; host or cells: human liver microsomes
Kind of assay: In vitro inhibition of 11β-HSD 1, HTRF detection of cortisol generated by human liver microsomes. It is filed as biochemical. The following applies: 1 μM test compound, 100% indicates no inhibition, zero or below zero indicates complete inhibition (relative to carbenoxolone). The method, boiled down:
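Human liver microsomes with test compound were incubated 1 h at 37 °C in Tris buffer, pH 6.0, with 200 μM NADPH and 80 nM cortisone. Cortisol formed was detected by competitive HTRF immunoassay (665/615 nm ratio) and calibrated against a cortisol standard curve. Values are activities at 1 μM compound relative to carbenoxolone, where 100% indicates no inhibition.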

T1 sequence (P28845 whole entry): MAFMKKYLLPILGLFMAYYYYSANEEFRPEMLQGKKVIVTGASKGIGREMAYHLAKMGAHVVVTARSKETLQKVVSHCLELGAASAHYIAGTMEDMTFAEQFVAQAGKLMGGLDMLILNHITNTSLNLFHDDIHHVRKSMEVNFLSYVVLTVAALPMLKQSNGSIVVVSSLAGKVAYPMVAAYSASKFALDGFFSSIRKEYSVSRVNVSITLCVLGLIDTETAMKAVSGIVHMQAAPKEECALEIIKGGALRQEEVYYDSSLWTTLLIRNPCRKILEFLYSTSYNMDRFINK

As for `COC(=O)c1cccc(C(=O)N2[C@@H]3CC[C@H]2C[C@@H](c2ccc(F)cc2)C3)c1` [Example 61, endo-3-[3-(4-Fluoro-phenyl)-8-aza-bicyclo[3.2.1]octane-8-carbonyl]-benzoic acid methyl ester], the “Inhibitory activity on 11β-HSD 1, % CTL” value is reported as 94 % CTL.

For `NC(=O)c1ccc(C(=O)N2[C@@H]3CC[C@H]2C[C@@H](c2ccc(F)cc2)C3)cc1` [Example 2, endo-4-[3-(4-Fluoro-phenyl)-8-aza-bicyclo[3.2.1]octane-8-carbonyl]-benzamide], the “Inhibitory activity on 11β-HSD 1, % CTL” value (1 µM) was −27 % CTL. For `O=C(c1ccc2c(c1)OCCO2)N1C2CCC1CC(c1ccc(F)c(Cl)c1)C2` (stereo not shown) [Example 148, [3-(3-Chloro-4-fluoro-phenyl)-8-aza-bicyclo[3.2.1]oct-8-yl]-(2,3-dihydro-benzo[1,4]dioxin-6-yl)-methanone], the “Inhibitory activity on 11β-HSD 1, % CTL” value is −48 % CTL. Same read-out and setting: the value for `COc1ccc(C(=O)N2[C@@H]3CC[C@H]2C[C@@H](c2ccc(F)cc2)C3)cc1C` [Example 170, endo-[3-(4-Fluoro-phenyl)-8-aza-bicyclo[3.2.1]oct-8-yl]-(4-methoxy-3-methyl-phenyl)-methanone] was −34 % CTL.
